Reference: PMC5368959, “Uricosuric targets of tranilast” (Pharmacology Research & Perspectives, 2017)
Where “and” joins values, the source holds several entries; their conditions need not be identical. Equal values may be shown once. Read-outs that look alike come from different tables or passages of the source.

Columns and labels:
Type in all cases: cell-based
NPT1 = target: T1, NPT1 (Homo sapiens, UniProt Q14916); experiment: [14C]-urate uptake by NPT1-expressing Xenopus oocytes
T1 sequence (Q14916 1-467): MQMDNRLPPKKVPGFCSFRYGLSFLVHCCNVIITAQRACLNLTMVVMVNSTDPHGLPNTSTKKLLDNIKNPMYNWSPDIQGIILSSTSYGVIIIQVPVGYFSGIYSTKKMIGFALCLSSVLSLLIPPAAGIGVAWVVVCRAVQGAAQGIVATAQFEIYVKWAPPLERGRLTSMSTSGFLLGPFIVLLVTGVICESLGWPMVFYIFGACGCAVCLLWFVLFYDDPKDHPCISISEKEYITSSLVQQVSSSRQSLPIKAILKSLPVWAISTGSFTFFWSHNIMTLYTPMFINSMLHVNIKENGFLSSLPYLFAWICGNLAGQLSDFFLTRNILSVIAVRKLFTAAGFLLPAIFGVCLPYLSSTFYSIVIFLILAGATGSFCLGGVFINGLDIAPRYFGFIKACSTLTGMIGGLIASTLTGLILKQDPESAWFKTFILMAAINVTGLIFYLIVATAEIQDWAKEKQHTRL
Protocol: (§1) For uptake experiments, oocytes were washed four times with ND96 medium (pH 7.4) without pyruvate and gentamycin.
The uptake of [^14C]‐urate by NPT1‐expressing oocytes was performed in ND96 medium (pH 7.4) at ~25°C for 1 h. […] Data are mean ± S.E. with n = 12–15.

OAT4 = target: T2, OAT4 (Homo sapiens, UniProt Q9NSA0); experiment: [14C]-urate uptake by OAT4-expressing Xenopus oocytes; conditions: for Inhibition of OAT4-mediated urate uptake: drug 100 μmol/L
T2 sequence (Q9NSA0 1-550): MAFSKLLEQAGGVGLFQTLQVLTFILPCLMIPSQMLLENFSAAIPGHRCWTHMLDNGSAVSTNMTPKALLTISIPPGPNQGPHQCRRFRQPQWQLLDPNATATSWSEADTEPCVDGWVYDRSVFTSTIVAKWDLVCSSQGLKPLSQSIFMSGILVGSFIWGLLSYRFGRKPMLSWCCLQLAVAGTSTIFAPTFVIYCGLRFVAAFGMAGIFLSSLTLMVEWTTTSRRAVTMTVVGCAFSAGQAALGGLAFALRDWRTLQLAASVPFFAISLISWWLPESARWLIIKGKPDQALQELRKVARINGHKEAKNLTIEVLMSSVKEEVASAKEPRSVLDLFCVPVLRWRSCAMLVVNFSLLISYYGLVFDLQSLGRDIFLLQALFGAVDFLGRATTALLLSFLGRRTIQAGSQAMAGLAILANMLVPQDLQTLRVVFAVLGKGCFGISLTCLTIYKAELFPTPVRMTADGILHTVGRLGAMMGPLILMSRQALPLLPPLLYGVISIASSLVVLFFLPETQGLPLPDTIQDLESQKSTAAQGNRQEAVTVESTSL
Protocol: as §1
(A) The uptake of [^14C]‐urate by OAT4‐expressing oocytes was performed in ND96 medium (pH 7.4) at ~25°C for 1 h. Na^+‐dependence was examined by replacing extracellular NaCl by KCl. […] (B) The inhibition of [^14C]‐urate uptake by OAT4 was examined in the presence of extracellular organic anions (for cis‐inhibition) or uricosuric drugs at the indicated concentrations. […] Data are mean ± S.E. with n = 12–15.

OAT3 = target: T3, OAT3 (Mus musculus, UniProt O88909); experiment: [14C]-urate uptake by OAT3-expressing Xenopus oocytes
T3 sequence (O88909 1-537): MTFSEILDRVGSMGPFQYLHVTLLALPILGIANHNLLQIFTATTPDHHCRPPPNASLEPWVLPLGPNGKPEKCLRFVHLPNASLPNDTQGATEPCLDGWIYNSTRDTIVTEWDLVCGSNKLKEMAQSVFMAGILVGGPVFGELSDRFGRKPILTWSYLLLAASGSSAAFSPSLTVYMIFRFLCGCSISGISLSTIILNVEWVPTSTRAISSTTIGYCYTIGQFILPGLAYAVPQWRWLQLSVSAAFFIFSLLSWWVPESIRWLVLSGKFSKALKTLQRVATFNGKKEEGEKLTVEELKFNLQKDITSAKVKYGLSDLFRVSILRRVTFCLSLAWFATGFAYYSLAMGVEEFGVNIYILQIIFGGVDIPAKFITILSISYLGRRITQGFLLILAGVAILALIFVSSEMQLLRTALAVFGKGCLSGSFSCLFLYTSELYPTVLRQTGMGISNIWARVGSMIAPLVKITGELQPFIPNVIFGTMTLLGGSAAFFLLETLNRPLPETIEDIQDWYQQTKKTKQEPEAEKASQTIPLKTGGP
Protocol: as §1
The uptake of [^14C]‐urate (40 μmol/L) was performed in ND96 medium (pH 7.4) at ~25°C for 1 h.

URAT1 = target: T4, URAT1 (Homo sapiens, UniProt Q96S37); experiment: [14C]-urate uptake by URAT1-expressing Xenopus oocytes; conditions: for IC50: 40 μmol/L urate
T4 sequence (Q96S37 1-553): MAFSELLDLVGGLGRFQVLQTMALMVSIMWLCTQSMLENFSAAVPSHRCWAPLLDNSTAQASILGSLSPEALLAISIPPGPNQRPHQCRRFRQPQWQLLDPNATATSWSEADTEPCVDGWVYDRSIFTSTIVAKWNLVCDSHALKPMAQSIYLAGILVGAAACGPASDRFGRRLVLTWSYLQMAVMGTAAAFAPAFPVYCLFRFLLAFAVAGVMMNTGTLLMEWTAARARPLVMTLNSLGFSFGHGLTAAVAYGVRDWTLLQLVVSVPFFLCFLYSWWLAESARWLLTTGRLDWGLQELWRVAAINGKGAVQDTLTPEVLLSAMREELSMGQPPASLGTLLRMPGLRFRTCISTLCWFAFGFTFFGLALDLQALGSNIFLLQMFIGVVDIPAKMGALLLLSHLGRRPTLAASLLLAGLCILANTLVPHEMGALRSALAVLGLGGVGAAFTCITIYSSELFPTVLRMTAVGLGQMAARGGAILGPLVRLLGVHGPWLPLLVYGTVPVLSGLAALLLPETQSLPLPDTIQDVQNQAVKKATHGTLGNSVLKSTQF
Excerpt: as §1

| SMILES | IC50 (NPT1) | Inhibition of NPT1-mediated urate uptake (NPT1; drug 100 μmol/L) | Inhibition of OAT4-mediated urate uptake (OAT4) | Inhibition of OAT3-mediated urate uptake (OAT3; drug 100 μmol/L) | Inhibition of URAT1-mediated [14C]-urate/PZA or /nicotinate exchange (URAT1) | Reversibility of URAT1 inhibition (URAT1) | URAT1 urate transport inhibition after washing and removal of inhibitor (URAT1) | Inhibition of NPT1-mediated urate uptake (NPT1; drug 1.0 mmol/L) | inhibition at 1000 µM (OAT4; read-out: Inhibition of OAT4-mediated urate uptake) | Inhibition of OAT3-mediated urate uptake (OAT3; drug 1.0 mmol/L) | IC50 (NPT1; data not shown, read-out: IC50, [14C]-urate uptake by NPT1) | IC50 (OAT4; data not shown) | IC50 (OAT3; data not shown, read-out: IC50, OAT3-mediated urate uptake) | Inhibition of OAT3-mediated urate uptake (OAT3; drug 50 μmol/L) | Vmax of URAT1-mediated urate uptake (URAT1) | mode of inhibition of URAT1-mediated urate transport (URAT1) | Ki (URAT1; Eadie-Hofstee analysis, read-out: inhibition constant (Ki) for URAT1-mediated urate uptake) | IC50 (URAT1; IC50, URAT1-mediated [14C]-urate/PZA or [14C]-urate/nicotinate exchange, oocytes preloaded with nicotinate (Fig. 1E), 1 h) | IC50 (URAT1; uptake in the absence of PZA or nicotinate preloading, data not shown, read-out: IC50, basal URAT1-mediated [14C]-urate uptake) |
| --- | --- | --- | --- | --- | --- | --- | --- | --- | --- | --- | --- | --- | --- | --- | --- | --- | --- | --- | --- |
| CCc1oc2ccccc2c1C(=O)c1cc(Br)c(O)c(Br)c1 [benzbromarone] | ~17.1 µM | effectively inhibited | very efficiently inhibited | effectively inhibited | efficiently inhibited | not reversible | substantially inhibited |  |  |  |  |  |  |  |  |  |  |  |  |
| CCCN(CCC)S(=O)(=O)c1ccc(C(=O)O)cc1 [probenecid] |  |  |  |  | efficiently inhibited | not reversible |  | only partially inhibited | 80% | effectively inhibited |  |  |  |  |  |  |  |  |  |
| COc1ccc(C=CC(=O)Nc2ccccc2C(=O)O)cc1OC [tranilast, N‐(3,4‐dimethoxycinnamoyl) anthranilic acid] |  | effectively inhibited | very efficiently inhibited |  |  |  | almost no inhibition |  |  |  | ~18.9 µM | ~22 µM | ~15 µM | effectively inhibited | 120.1 pmoles/oocyte/h and 63.5 pmoles/oocyte/h | noncompetitive inhibition (mixed) | 21.3 ± 2.2 µM | 21 µM and ~21 µM | ~20 µM |
